The record followed here is US9376665B2, “Method for producing intestinal cells” (National University Corporation Kumamoto University, priority 2010, dated 2016).

For test [1], the system named is mouse ES cells. Put plainly: Test Example 1: addition of various inhibitors, Cdx2 expression by real-time PCR. The class given is cell-based. Particulars: inhibitor plus BIO (5 μM) and DAPT (10 μM) on MEF cells for 8 days (12th day of cultivation), Noggin 500 ng/mL, Dorsomorphin 200 nM, KAAD-Cyclopamine 250 nM. How it is done:
In order to clarify what mechanism induces the intestinal differentiation in a case where mouse ES cells are used as a starting material, inhibitors against various signal transduction systems were added besides BIO and DAPT, and conditions in which expression of an intestinal marker Cdx2 decreases were evaluated.
As an inhibitor, 500 ng/mL of Noggin (R&D systems) or 200 nM of Dorsomorphin (SIGMA-ALDRICH), which is a BMP-signaling inhibitor; 1 μM of LE540 (Wako), which is a retinoic-acid-signaling inhibitor; 250 nM of KAAD-Cyclopamine (Calbiochem), which is a hedgehog-signaling inhibitor; or 10 μM of AMD3100 (SIGMA-ALDRICH), which is a Cxcr4 inhibitor, was added thereto. […] After that, the above-sorted definitive endoderm cells were cultured in the presence of BIO (5 μM) and DAPT (10 μM) as well as the above-mentioned inhibitor for 8 days (until the 12th day of cultivation) in accordance with the method described in Example 1, RNAs were extracted from the cells by the method described in Example 1, and expression of the Cdx2 gene, namely an intestinal marker, was analyzed by real-time PCR. The real-time PCR was carried out by use of the primer pairs used in Example 1 (see Table 1), Thunderbird SYBR qPCR mix (Toyobo), and 7500 Fast Real-Time PCR system (ABI Company).

The test system of another test is ES cells. Put plainly: Effect of signalling inhibitors on intestinal differentiation by BIO and DAPT (Cdx2 RT-PCR and immunohistochemistry). The test is classed as cell-based, mouse. The conditions noted are these: inhibitor added with BIO and DAPT on MEF cells; RT-PCR and anti-Cdx2 immunohistochemistry, day 12.
The test system of test [2] is mouse ES cells. Description: Intestinal differentiation of mouse ES cells on M15 cells; marker expression by PCR and immunohistochemistry. The test is classed as cell-based. Particulars: quantitative PCR, BIO or DAPT added alone after definitive endoderm induction, Day 20 (d20). As to the method:
In this example, a cell line R1 was used as mouse ES cells. The cell line R1 was maintained on mouse embryonic fibroblast (MEF) feeders in 2000 mg/L-glucose-containing DMEM supplemented with Leukemia Inhibitory Factor (LIF), 10% fetal bovine serum (FBS), 100 μM of non-essential amino acids (NEAA), 2 mM of L-Gln, 50 units/mL of penicillin and 50 μg/mL of streptomycin (PS), and 100 μM β-mercaptoethanol.
(§1) The ES cells were culture on M15 cells added with 20 ng/mL of activin and 50 ng/mL of bFGF in DMEM medium containing 10% fetal bovine sera and […] of glucose for 5 days, and were analyzed using flow cytometry for definitive endoderm. For intestinal differentiation, the ES cells were further cultured on M15 or MEF cells, in the presence of BIO and DAPT, or without BIO and DAPT but with FGFs, in media with 10% KSR at a glucose concentration of 2000 mg/mL.
RNA was extracted from the ES cells using TRI Reagent (Sigma) or RNeasy micro-kit (Qiagen), and then, was treated with DNase (Sigma). Three micrograms of RNA were reverse-transcribed using a MMLV reverse transcriptase (Toyobo) and oligo dT primers (Toyobo). […]

For test [3], the system named is definitive endoderm cells. Put plainly: Re-culture of sorted ES cell-derived definitive endoderm cells on feeder cells with BIO and DAPT; marker expression. The class given is cell-based, mouse. How it is done:
as §1
The cells were dissociated with Cell Dissociation Buffer (Invitrogen), adjusted to 1×10^6 cells/50 μL, and stained with appropriate antibodies. A biotin- or Alexa 488-conjugated anti-E-cadherin monoclonal antibody ECCD2, and a phycoerythrin (PE)-conjugated anti-Cxcr4 mAb 2B11 (BD Pharmingen) were used as the antibodies. The stained cells were purified with FACS Aria (BD Pharmingen). Data were recorded using the BD FACSDiva Software program (BD Pharmingen), and were analyzed using the Flowjo program (Tree Star).
(§2) RNA was extracted from the ES cells using TRI Reagent (Sigma) or RNeasy micro-kit (Qiagen), and then, was treated with DNase (Sigma). Three micrograms of RNA were reverse-transcribed using a MMLV reverse transcriptase (Toyobo) and oligo dT primers (Toyobo). The PCR conditions for each cycle include initial denaturation at 96° C. for one minute, and the second and subsequent cycles of denaturation at 96° C. for 30 seconds, annealing at 60° C. for 2 seconds and extension at 72° C. for 20 seconds, and the final cycle of extension at 72° C. for 7 minutes. RT-PCR products were separated by 5% non-denaturing polyacrylamide gel electrophoresis, stained with SYBR Green I (Molecular Probes), and visualized using Gel Logic 200 Imaging System (Kodak).

For test [4], the system named is mouse ES cells. Description: Test Example 2: addition of various activators, proportion of Cdx2-positive cells by flow cytometry, feeder-free. The test is classed as cell-based. The conditions noted are these: for efficiency of differentiation, BMP4 or SAG added besides FGF2: 15th day of cultivation, with BIO and DAPT. As to the method: Therefore, next, an experiment in which the FGF signaling, the BMP signaling and the Hh signaling were activated was carried out. In view of micro-array data showing that MEF cells express FGF2 and BMP4, 50 ng/mL of FGF2 (PEPROTECH) and 25 ng/mL of BMP4 (R&D Systems) were used to activate the FGF signaling and the BMP signaling. Furthermore, as to activation of the Hh signaling, 300 nM of SAG (MERCK) (smoothend agonist; smo) was used.
For the experiment of inducing the differentiation, the induction of differentiation was carried out in a feeder-free system as described below. First, mouse ES cells were plated on a gelatin-coated dish at 6,900 cells/cm^2. The ES cells were cultured for 7 days in DMEM medium (Dulbecco's Modified Eagle Medium) (Invitrogen, Glasgow, UK) containing 4,500 mg/L of glucose, supplemented with NEAA, L-Gln, PS, β-ME, 10 μg/mL of Insulin (Sigma-Aldrich), […] of Transferin (Sigma-Aldrich), 6.7 pg/mL of Selenium (Sigma-Aldrich), 0.25% AlbuMax (Invitrogen), and 10 ng/mL of recombinant human activin A (R&D Systems, Minneapolis, Minn.), and then, the culture medium was replaced with 10% KSR containing 2,000 mg/mL of glucose, BIO (5 μM) and DAPT (10 μM) and further supplemented with the activator or growth factor. After that, cell culturing was further continued, the cells were separated on the 10th day and the 15th day of cultivation as described in Example 1, and then, the proportion of Cdx2-positive cells was evaluated by use of flow cytometry. The flow cytometry (FACS) analysis was carried out using BD Cytofix/Cytoperm™ Kit (BD Biosciences) in accordance with a manual provided by the manufacturer.

For test [5], the system named is definitive endoderm cells. Put plainly: Effects of FGFs on intestinal differentiation of definitive endoderm cells (RT-PCR, Cdx2 immunohistochemistry). The test is classed as cell-based, mouse. The conditions noted are these: FGFs added from Day 4 of the differentiation, on MEF cells; immunohistochemistry on day 12. How it is done: as §1
256 ng/mL of FGF2 (human bFGF) (Peprotech); and
50 ng/mL of FGF4 (Peprotech), FGF5 (Sigma), FGF7 (R&D Systems), FGF8 (Cosmo Bio), FGF9 (Peprotech), FGF10 (R&D Systems) and FGF18 (Sigma), respectively.
as §2

Where [6] appears, read: high BIO concentration with DAPT (10 μM).
[7] abbreviates: high concentration of DAPT in the presence of BIO (5 μM).

Regarding KAAD-Cyclopamine [reference compound], the “expression of Cdx2” value in the test on mouse ES cells [1] is on record as “lowered”.

Consider `Cc1c[nH]c(/C=C2\C(=O)Nc3ccccc32)c1CCC(=O)O` [SU5402], for which, in the test on ES cells, the “intestinal differentiation mediated by BIO and DAPT (Cdx2 expression)” value is “partially inhibited”.

With `O=C1Nc2cc(Br)ccc2/C1=C1/Nc2ccccc2/C1=N\O` [BIO, (2′Z,3′E)-6-bromoindirubin-3′-oxime], the “expression of Intestinal fatty acid binding protein (Ifabp)” value in the test on mouse ES cells [2] was “induced expression”. Further, in test [3] (setting [6]), the Hoxc8 entry is given as “turning on” and the Pax8 entry is “turned off”.

On to `C[C@H](NC(=O)Cc1cc(F)cc(F)c1)C(=O)N[C@H](C(=O)OC(C)(C)C)c1ccccc1` [DAPT, N-[(3,5-difluorophenyl)acetyl]-L-Ala-2-phenyl-L-Gly-tert-butyl-OH], for which, in the test on mouse ES cells [2], the “expression of Intestinal fatty acid binding protein (Ifabp)” value is “induced expression”. In addition, in test [3] (setting [7]), the “anterior marker Pax8” value was “turned off” and the “posterior marker Hoxc8” value is “inducing”.

Take `CNC1CCC(N(Cc2cccc(-c3ccncc3)c2)C(=O)c2sc3ccccc3c2Cl)CC1` (stereo not drawn) [SAG, N-Methyl-N′-(3-pyridinylbenzyl)-N′-(3-chlorobenzo[b]thiophene-2-carbonyl)-1,4-diaminocyclohexane, reference compound]: the “number of Cdx2-positive cells versus control (only BIO and DAPT)” value in the test with mouse ES cells [4] (10th day of cultivation, FGF2 50 ng/mL or SAG 300 nM added besides BIO and DAPT) is listed as “decrease”. The “efficiency of differentiation, BMP4 or SAG added besides FGF2” value in the test with mouse ES cells [4] was “yet more efficiently differentiate”.

For the molecule `N#CC(=C(/N)Sc1ccccc1N)/C(C#N)=C(\N)Sc1ccccc1N` [U0126], the “intestinal differentiation mediated by BIO and DAPT (Cdx2 expression)” value in the test on ES cells is given as “not inhibited”.

B1: FGF10: FGF10 (R&D Systems), growth factor (protein, UniProt O15520 38-208, looked up)
Fibroblast growth factor 10: QALGQDMVSPEATNSSSSSFSSPSSAGRHVRSYNHLQGDVRWRKLFSFTKYFLKIEKNGKVSGTKKENCPYSILEITSVEIGVVAVKAINSNYYLAMNKKGKLYGSKEFNNDCKLKERIEENGYNTYASFNWQHNGRQMYVALNGKGAPRRGQKTRRKNTSAHFLPMVVHS
As for B1, the “induction of Cdx2-expressing intestinal cells” value (from here on “induction”) in test [5] is “induced intestinal differentiation of ES cells, but the levels thereof were lower”.

B2: FGF7: FGF7 (R&D Systems), growth factor (protein, UniProt P21781 32-194, looked up)
Fibroblast growth factor 7: CNDMTPEQMATNVNCSSPERHTRSYDYMEGGDIRVRRLFCRTQWYLRIDKRGKVKGTQEMKNNYNIMEIRTVAVGIVAIKGVESEFYLAMNKEGKLYAKKECNEDCNFKELILENHYNTYASAKWTHNGGEMFVALNQKGIPVRGKKTKKEQKTAHFLPMAIT
For B2, the “induction” value in test [5] was “induced intestinal differentiation of ES cells, but the levels thereof were lower”.

B3: FGF4: FGF4 (Peprotech), growth factor (protein, UniProt P08620 31-206, looked up)
Fibroblast growth factor 4: APTAPNGTLEAELERRWESLVALSLARLPVAAQPKEAAVQSGAGDYLLGIKRLRRLYCNVGIGFHLQALPDGRIGGAHADTRDSLLELSPVERGVVSIFGVASRFFVAMSSKGKLYGSPFFTDECTFKEILLPNNYNAYESYKYPGMFIALSKNGKTKKGNRVSPTMKVTHFLPRL
B3: the “induction” value in test [5] was “more potent in inducing Cdx2-expressing cells than FGF2 (bFGF)”.

B4: Noggin: Noggin (R&D systems), a BMP-signaling inhibitor (protein, UniProt Q13253 28-232, looked up)
Noggin: QHYLHIRPAPSDNLPLVDLIEHPDPIFDPKEKDLNETLLRSLLGGHYDPGFMATSPPEDRPGGGGGAAGGAEDLAELDQLLRQRPSGAMPSEIKGLEFSEGLAQGKKQRLSKKLRRKLQMWLWSQTFCPVLYAWNDLGSRFWPRYVKVGSCFSKRSCSVPEGMVCKPSKSVHLTVLRWRCQRRGGQRCGWIPIQYPIISECKCSC
On to B4, for which the “expression of Cdx2” value with mouse ES cells [1] is reported as “lowered”.

B5: FGF18: FGF18 (Sigma), growth factor (protein, UniProt O76093 28-207, looked up)
Fibroblast growth factor 18: EENVDFRIHVENQTRARDDVSRKQLRLYQLYSRTSGKHIQVLGRRISARGEDGDKYAQLLVETDTFGSQVRIKGKETEFYLCMNRKGKLVGKPDGTSKECVFIEKVLENNYTALMSAKYSGWYVGFTKKGRPRKGPKTRENQQDVHFMKRYPKGQPELQKPFKYTTVTKRSRRIRPTHPA
As to B5, in test [5], the “induction” value is “induced intestinal differentiation of ES cells, but the levels thereof were lower”.

B6: BMP4: BMP4 (R&D Systems), activates the BMP signaling (protein, UniProt P12644 293-408, looked up)
Bone morphogenetic protein 4: SPKHHSQRARKKNKNCRRHSLYVDFSDVGWNDWIVAPPGYQAFYCHGDCPFPLADHLNSTNHAIVQTLVNSVNSSIPKACCVPTELSAISMLYLDEYDKVVLKNYQEMVVEGCGCR
In the case of B6, the “number of Cdx2-positive cells, BMP4 added in addition to SAG” value in the test with mouse ES cells [4] (10th day of cultivation, BMP4 25 ng/mL, SAG 300 nM, BIO and DAPT) is on record as “improved”. Further, the “efficiency of differentiation, BMP4 or SAG added besides FGF2” value with mouse ES cells [4] is recorded as “yet more efficiently differentiate”.
